{
  "source": "patent US12403172B2",
  "about": "“Composition for preventing, alleviating or treating metabolic syndrome accompanied by obesity and/or diabetes, containing, as active ingredient, complex (IB complex) of Indian gooseberry extract and sprout barley extract” (HLSCIENCE CO., LTD, priority 2019, dated 2025)",
  "tested_on": "obesity-induced mice from high fat diet",
  "assay": "Body weight change of obesity-induced mice",
  "type": "in vivo, C57BL/6J mice",
  "conditions": "60% high fat diet + Metformin 250 mg/kg b.w.",
  "experimental": "The effect on the body weight change of obesity-induced mice from high fat diet of the complex of the Indian gooseberry extract and barley sprout extract of the present invention was confirmed. As an experimental animal, 4-week male C57BL/6J mice around 20 g were supplied from Saeron Bio Inc. (Uiwang-si, Korea). They were used for the experiment, after passing through the adaptation period for 1 week under the condition that the light and dark was 12 hours (light/dark cycle) and the temperature was 23±2° C. and the relative humidity was 50±5%. During the adaptation period, AIN-93G diet and drinking water were allowed to be consumed freely, and the body weight was measured to separate 8 mice per each group by the random method. At the end of the adaptation period, the sample intake was progressed as free diet intake for 15 weeks, and the dietary intake and body weight were measured every week, and after the end of the experiment, the weight gain was divided by the dietary intake (total food consumption)) for the same period to calculate the food efficiency ratio (FER). The classification of the experimental group and the composition of the experimental diet were shown in Table 5, and the equation of the diet efficiency was shown in the following equation 3. FER=weight gain (g)/total food consumption (g)×100 Equation 3",
  "note": "Marks after values point to notes of the source that are not given here.",
  "data": [
    {"smiles": "CN(C)C(=N)N=C(N)N", "note": "[Met, Metformin]", "values": [
      {"measurement": "Initial body weight", "value": "19.26 ± 0.66", "unit": "g"},
      {"measurement": "Final body weight (g)", "setting": "15 weeks", "value": "39.46 ± 2.16^d g"},
      {"measurement": "Food intake (g/day/mouse)", "setting": "15 weeks", "value": "2.66 ± 0.18^b g/day/mouse"},
      {"measurement": "Weight gain (g)", "setting": "15 weeks", "value": "20.20 ± 1.89^c g"},
      {"measurement": "FER (food efficiency ratio)", "setting": "weight gain/total food consumption x100", "value": "7.25 ± 0.68^c"}
    ]}
  ]
}
